Assay results as given in ChEMBL document CHEMBL5465560, “Selectivity Literature for EUbOPEN Chemogenomic Library” (2024).

Assays:
[1] = target: T1, Ephrin type-B receptor 2 (Homo sapiens) (UniProt P29323); experiment: Selectivity interaction (KinomeScan (DiscoverX)) EUB0001049a EPHB2; settings: at 1 µM
T1 sequence (whole entry): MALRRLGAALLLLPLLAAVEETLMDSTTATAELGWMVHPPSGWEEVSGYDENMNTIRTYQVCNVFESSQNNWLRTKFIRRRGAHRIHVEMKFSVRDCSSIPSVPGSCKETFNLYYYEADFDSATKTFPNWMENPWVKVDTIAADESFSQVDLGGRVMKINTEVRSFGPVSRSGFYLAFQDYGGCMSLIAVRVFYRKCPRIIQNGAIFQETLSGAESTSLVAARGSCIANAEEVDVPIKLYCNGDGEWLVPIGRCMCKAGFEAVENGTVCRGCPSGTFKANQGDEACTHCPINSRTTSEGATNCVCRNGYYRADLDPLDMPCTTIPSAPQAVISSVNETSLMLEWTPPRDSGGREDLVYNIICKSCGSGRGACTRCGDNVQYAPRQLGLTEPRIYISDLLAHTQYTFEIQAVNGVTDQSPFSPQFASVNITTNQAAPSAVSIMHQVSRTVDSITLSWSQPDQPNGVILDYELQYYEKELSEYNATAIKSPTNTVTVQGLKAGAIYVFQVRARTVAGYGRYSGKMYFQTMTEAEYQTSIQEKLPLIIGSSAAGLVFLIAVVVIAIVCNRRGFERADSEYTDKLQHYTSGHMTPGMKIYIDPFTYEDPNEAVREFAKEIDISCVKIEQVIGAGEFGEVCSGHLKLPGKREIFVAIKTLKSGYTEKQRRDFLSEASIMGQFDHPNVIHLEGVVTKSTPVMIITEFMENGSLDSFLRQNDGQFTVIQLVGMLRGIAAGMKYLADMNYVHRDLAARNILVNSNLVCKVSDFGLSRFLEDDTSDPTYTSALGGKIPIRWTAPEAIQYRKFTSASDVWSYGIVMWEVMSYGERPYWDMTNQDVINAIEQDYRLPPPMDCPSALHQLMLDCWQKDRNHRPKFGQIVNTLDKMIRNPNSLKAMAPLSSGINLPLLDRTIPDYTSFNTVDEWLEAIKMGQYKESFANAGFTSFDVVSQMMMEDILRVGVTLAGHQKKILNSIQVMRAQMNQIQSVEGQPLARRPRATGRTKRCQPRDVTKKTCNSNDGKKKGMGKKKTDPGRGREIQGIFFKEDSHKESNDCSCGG

[2] = target: T2, Ephrin type-B receptor 3 (Homo sapiens) (UniProt P54753); experiment: Selectivity interaction (KinomeScan (DiscoverX)) EUB0001049a EPHB3; settings: at 1 µM
T2 sequence (whole entry): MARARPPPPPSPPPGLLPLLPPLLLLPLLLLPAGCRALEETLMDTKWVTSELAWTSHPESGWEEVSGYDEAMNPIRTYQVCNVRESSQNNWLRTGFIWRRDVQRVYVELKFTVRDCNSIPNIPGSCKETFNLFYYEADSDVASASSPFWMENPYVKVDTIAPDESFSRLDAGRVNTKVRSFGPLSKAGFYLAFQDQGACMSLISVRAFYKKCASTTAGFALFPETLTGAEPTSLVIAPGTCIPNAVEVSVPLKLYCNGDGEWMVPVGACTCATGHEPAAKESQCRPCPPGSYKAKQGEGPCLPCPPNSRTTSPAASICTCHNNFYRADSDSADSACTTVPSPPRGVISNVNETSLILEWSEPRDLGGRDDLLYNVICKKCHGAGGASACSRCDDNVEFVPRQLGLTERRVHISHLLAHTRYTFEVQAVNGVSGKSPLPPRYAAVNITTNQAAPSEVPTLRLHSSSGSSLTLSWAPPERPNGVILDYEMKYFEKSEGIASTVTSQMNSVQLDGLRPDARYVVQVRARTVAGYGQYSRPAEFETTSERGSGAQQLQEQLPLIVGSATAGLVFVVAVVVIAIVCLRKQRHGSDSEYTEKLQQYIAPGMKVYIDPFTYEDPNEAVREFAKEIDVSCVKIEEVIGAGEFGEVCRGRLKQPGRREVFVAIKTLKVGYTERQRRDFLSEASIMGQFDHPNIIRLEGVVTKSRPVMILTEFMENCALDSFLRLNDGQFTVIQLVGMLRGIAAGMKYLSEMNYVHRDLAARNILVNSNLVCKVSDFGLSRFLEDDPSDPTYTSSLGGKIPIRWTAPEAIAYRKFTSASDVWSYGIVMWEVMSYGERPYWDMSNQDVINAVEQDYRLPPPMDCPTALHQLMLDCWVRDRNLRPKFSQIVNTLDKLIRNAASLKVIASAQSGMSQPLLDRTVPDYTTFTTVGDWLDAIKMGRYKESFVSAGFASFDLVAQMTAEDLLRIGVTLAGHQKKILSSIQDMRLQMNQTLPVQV

[3] = target: Phosphatidylinositol 4,5-bisphosphate 3-kinase catalytic subunit alpha isoform (Homo sapiens) (UniProt P42336); experiment: Selectivity interaction (Kinase panel (literature)) EUB0001199aCl PIK3CA; settings: at 1 µM
[4] = target: Epidermal growth factor receptor (Homo sapiens, UniProt P00533); experiment: Selectivity interaction (Radiometric kinase assay (using 10 uM ATP)) EUB0000601a EGFR
[5] = target: Serine/threonine-protein kinase 38-like (Homo sapiens) (UniProt Q9Y2H1); experiment: Selectivity interaction (Kinase panel (DSF assay)) EUB0001559a STK38L
[6] = target: T3, Serine/threonine-protein kinase 17A (Homo sapiens) (UniProt Q9UEE5); experiment: Selectivity interaction (KinomeScan (DiscoverX)) EUB0000595a STK17A; settings: at 10 µM
T3 sequence (whole entry): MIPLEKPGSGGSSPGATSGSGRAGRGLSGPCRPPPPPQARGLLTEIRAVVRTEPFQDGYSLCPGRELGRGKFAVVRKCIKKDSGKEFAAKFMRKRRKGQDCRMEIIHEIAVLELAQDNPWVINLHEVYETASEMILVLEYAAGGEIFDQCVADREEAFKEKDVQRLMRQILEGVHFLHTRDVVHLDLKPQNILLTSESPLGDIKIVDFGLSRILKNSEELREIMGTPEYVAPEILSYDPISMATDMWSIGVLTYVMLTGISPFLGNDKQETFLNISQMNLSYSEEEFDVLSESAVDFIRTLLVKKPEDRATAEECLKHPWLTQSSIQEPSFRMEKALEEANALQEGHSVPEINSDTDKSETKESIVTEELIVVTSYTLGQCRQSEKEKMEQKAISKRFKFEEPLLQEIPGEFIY

[7] = target: Mitogen-activated protein kinase 10 (Homo sapiens, UniProt P53779); experiment: Selectivity interaction (KinomeScan (DiscoverX)) EUB0000595a MAPK10; settings: at 10 µM
[8] = target: Vascular endothelial growth factor receptor 1 (Homo sapiens) (UniProt P17948); experiment: Selectivity interaction (KinomeScan (DiscoverX)) EUB0000092b FLT1; settings: at 10 µM
[9] = target: Cyclin-dependent kinase 5 (Homo sapiens, UniProt Q00535); settings: at 10 µM
[10] = target: Cyclin-dependent kinase 15 (Homo sapiens) (UniProt Q96Q40); experiment: Selectivity interaction (KinomeScan (DiscoverX)) EUB0000655a CDK15; settings: at 10 µM
Cyclin-dependent kinase 15 (Homo sapiens), sequence (Q96Q40 whole entry): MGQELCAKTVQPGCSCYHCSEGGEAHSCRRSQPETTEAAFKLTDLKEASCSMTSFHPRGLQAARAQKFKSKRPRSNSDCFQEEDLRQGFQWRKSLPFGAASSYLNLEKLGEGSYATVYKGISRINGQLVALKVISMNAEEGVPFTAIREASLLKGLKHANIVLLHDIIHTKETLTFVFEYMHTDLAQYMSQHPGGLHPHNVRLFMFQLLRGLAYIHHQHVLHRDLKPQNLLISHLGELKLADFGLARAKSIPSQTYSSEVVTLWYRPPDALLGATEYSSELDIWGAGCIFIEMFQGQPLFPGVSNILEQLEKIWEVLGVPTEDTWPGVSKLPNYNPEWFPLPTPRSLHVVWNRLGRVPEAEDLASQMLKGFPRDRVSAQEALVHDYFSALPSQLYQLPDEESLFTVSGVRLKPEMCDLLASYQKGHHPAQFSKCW

Mitogen-activated protein kinase 10, sequence (P53779 whole entry): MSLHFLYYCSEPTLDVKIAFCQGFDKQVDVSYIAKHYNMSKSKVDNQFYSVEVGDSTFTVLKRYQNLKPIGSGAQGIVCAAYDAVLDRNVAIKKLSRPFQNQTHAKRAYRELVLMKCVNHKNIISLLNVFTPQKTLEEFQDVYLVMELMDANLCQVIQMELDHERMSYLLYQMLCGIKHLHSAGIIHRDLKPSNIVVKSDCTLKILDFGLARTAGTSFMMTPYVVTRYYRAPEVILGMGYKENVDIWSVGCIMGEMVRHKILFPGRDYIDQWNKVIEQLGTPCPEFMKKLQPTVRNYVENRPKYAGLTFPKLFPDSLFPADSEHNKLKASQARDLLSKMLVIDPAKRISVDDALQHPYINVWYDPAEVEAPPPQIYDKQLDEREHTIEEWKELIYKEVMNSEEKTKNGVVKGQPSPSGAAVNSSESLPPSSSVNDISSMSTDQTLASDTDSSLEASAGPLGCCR
Cyclin-dependent kinase 5, sequence (Q00535 whole entry, looked up): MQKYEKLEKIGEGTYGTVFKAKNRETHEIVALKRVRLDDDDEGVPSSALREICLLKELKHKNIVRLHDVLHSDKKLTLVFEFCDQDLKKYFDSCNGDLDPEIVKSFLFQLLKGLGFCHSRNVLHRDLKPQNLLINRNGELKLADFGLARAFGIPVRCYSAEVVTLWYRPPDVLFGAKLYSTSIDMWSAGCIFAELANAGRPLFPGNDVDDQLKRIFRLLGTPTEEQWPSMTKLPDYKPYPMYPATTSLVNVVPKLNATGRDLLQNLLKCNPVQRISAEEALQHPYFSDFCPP
Epidermal growth factor receptor, sequence (P00533 whole entry): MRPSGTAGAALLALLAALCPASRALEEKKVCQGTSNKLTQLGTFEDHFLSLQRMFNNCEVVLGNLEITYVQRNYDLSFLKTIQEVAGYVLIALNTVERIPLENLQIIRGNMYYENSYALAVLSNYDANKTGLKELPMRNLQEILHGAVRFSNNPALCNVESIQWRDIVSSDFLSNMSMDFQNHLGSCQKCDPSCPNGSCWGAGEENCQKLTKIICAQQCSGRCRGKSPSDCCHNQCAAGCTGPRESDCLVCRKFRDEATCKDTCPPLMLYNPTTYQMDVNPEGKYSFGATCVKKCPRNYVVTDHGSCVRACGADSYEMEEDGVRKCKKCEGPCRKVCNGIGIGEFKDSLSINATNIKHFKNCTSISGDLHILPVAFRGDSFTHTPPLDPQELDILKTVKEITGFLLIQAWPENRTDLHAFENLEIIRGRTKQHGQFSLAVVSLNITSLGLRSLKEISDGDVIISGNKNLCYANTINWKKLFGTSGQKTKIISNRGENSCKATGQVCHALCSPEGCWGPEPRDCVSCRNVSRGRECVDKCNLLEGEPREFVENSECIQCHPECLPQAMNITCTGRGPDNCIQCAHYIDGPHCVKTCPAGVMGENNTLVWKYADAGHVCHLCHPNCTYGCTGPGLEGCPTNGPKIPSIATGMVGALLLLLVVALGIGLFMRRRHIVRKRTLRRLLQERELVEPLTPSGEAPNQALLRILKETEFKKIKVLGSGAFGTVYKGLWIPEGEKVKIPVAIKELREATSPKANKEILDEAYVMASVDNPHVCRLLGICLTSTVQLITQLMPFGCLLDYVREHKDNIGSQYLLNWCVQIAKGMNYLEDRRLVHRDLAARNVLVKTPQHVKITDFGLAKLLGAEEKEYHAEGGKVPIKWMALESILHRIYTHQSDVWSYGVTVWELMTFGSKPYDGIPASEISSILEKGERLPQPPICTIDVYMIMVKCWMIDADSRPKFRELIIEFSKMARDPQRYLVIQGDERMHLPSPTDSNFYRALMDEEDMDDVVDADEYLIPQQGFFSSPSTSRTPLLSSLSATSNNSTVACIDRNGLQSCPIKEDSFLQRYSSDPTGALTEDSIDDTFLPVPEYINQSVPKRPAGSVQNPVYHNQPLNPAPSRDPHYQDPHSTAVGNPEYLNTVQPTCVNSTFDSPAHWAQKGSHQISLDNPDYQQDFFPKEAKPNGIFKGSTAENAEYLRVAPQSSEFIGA
Vascular endothelial growth factor receptor 1 (Homo sapiens), sequence (P17948 whole entry): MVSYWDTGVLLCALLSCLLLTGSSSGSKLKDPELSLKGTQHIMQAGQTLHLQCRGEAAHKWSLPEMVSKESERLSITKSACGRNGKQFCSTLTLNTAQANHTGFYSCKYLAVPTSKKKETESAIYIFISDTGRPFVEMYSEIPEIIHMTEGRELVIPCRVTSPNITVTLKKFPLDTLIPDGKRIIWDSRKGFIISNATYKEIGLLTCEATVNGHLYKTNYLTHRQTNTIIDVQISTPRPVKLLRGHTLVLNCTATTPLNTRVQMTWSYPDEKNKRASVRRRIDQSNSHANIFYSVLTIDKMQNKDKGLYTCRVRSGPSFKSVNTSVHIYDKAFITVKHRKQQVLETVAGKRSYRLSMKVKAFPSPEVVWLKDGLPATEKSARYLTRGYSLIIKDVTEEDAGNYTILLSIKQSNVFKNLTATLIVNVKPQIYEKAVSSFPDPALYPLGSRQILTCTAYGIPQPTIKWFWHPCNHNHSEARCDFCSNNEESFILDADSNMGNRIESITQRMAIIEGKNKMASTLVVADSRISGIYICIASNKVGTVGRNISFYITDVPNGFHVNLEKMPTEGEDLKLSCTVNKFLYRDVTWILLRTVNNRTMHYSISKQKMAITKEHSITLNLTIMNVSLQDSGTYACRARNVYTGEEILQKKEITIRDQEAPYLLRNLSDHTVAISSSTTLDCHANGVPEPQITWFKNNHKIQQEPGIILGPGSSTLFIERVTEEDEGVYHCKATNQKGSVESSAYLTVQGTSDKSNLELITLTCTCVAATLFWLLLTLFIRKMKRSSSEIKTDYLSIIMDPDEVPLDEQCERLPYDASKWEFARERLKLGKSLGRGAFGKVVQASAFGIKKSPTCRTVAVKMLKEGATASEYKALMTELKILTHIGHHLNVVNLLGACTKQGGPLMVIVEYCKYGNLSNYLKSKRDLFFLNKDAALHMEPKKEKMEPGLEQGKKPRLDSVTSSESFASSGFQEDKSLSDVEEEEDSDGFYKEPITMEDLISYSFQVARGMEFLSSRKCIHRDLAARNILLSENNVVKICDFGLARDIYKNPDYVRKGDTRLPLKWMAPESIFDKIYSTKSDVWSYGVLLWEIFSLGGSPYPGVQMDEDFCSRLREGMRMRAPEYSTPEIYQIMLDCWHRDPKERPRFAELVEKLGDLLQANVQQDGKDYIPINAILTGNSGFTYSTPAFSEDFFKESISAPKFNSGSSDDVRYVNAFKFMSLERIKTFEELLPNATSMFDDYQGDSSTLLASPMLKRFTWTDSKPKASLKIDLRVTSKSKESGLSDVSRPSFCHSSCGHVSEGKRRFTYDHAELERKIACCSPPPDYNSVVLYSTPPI
Phosphatidylinositol 4,5-bisphosphate 3-kinase catalytic subunit alpha isoform (Homo sapiens), sequence (P42336 whole entry, canonical isoform): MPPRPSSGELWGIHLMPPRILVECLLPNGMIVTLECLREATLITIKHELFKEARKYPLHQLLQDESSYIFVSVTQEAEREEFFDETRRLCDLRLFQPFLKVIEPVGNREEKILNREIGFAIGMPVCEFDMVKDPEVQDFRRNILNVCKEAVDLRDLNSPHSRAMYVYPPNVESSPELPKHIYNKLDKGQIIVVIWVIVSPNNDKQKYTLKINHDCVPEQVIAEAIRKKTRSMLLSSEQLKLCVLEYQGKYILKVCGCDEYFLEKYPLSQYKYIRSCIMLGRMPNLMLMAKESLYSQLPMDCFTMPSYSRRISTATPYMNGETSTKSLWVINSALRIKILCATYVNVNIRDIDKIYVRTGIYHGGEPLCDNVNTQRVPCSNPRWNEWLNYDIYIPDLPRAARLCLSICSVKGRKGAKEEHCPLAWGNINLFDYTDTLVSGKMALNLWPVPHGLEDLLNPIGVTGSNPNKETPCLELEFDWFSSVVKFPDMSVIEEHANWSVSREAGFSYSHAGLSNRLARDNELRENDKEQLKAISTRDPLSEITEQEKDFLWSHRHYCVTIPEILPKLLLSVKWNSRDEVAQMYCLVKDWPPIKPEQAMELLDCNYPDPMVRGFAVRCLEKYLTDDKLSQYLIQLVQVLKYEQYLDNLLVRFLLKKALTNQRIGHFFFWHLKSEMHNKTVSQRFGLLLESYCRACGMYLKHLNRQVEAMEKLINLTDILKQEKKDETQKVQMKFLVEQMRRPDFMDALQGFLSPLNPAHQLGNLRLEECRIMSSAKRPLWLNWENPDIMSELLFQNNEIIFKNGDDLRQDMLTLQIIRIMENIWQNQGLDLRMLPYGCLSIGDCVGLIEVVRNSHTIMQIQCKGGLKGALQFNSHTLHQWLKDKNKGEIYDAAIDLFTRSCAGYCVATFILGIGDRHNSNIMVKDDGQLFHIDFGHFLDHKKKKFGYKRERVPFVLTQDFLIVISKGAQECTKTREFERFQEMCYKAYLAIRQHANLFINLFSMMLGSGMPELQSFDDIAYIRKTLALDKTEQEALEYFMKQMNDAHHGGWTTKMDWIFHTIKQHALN

COc1cc(Nc2nc(C)cc(-c3cnn4nc(OC)ccc34)n2)cc(C(F)(F)F)c1
% of control [1]: 92% | % of control [2]: 97%

CN1Cc2nccc(-c3cn(C)nc3-c3ccc(F)cc3)c2C1=O
% of inhibition [3]: 1%

CCc1cc(Nc2nccc(-c3c(-c4ccc(OC)c(C(=O)Nc5c(F)cccc5F)c4)nc4ccccn34)n2)c(OC)cc1N1CCC(N2CCN(S(C)(=O)=O)CC2)CC1
IC50 [4]: > 10 µM

CN(C(=O)c1cnn2cccnc12)c1cc2c(cc1N1CCOCC1)C(=O)N(C[C@@H](F)C(C)(C)O)C2
dTM [5]: 0 K

COCC(=O)NC/C=C/c1ccc2ncnc(Nc3ccc(Oc4ccc(C)nc4)c(C)c3)c2c1 [CP-724714]
% of control [6]: 84% | % of control [7]: 68%

CCC(=O)N1CCN(c2ccc(-n3c(=O)ccc4cnc5ccc(-c6cnc7ccccc7c6)cc5c43)cc2C(F)(F)F)CC1
% of control [8]: 79%

Cc1cc([C@@H](C)Nc2ccccc2C(=O)O)c2nc(N3CCOCC3)cc(=O)n2c1 [AZD-6482]
% of control [9]: 100%

CN(C)CCOc1ccc(-c2nc(-c3ccncc3)c(-c3ccc4c(c3)CC/C4=N\O)[nH]2)cc1
% of control [10]: 100%
